Entries after “also recorded” stand apart in the source; their conditions may differ. Where two headings read alike, the source gives them in different places.
Columns and labels:
[1] = system: Vascular smooth muscle (BO54) cells; format: cell-based, baboon
[2] = system: Vascular smooth muscle (BO54) cells; format: cell-based, baboon; remark: listed apart in the source
[3] = Seven day intravenous toxicity study; format: in vivo, beagle dogs; settings: seven consecutive days, 10080 min
[4] = system: Pig femoral arteries; assay: Biological stenting of balloon traumatized femoral arteries (luminal area morphometry); format: in vivo
Experimental: Pig femoral arteries were traumatized as described in Example 7, and then treated with cytochalasin B. About 1.5 to about 2 ml of cytochalasin B at 0.1 µg/ml was infused into portions of the artery that had been separated from other portions by ligatures. The artery was then pressurized for 3 minutes and the fluid aspirated. Approximately 8 to about 30 lambda of the solution is retained in the interstitial space surrounding the cells in the tunica media. Ten femoral arteries (two arteries obtained from each of the 5 pigs that were treated according to the single dose protocol described in Example 7) were then evaluated histologically at 4 days or 3 weeks after cytochalasin B adminstration. The maximal luminal area of each artery was measured and calculated from digitized microscopic images by a BQ System IV computerized morphometric analysis system (R & M Biometrics, Inc., Nashville, TN). This experiment was repeated with 5 additional pigs (two arteries per pig; cytochalasin B dose = 0.1 µg/ml, applied for 3 minutes at 1 atm pressure; same time points). The data obtained from the two experiments were combined.
The luminal area of the traumatized and cytochalasin B-treated segments of the arteries were also compared to the luminal area of the normal, untreated region of the femoral artery proximal to the test area.
A cytochalasin B dose response study was then conducted on 10 pigs, following the experimental protocol described in Example 7. Briefly, both femoral arteries in each of 2 pigs were treated with one of the following doses of cytochalasin B: 0.0 µg/ml (i.e., PBS negative control); 0.01 µg/ml; 0.10 µg/ml; 1.0 µg/ml; and 10.0 µg/ml as described above. The agent was delivered by intraluminal catheter at 1 atm pressure for 3 minutes, and the arteries were evaluated 3 weeks later by the morphometric analysis system described above. The ratio of treated artery luminal area to proximal normal artery luminal area was determined as a percent change in treated vs. normal area, or the artery lumen size (diameter or cross sectional area) of treated arteries relative to traumatized but untreated arteries.
Balloon traumatized swine femoral arteries from control and treated (0.1 µg/ml cytochalasin B) were evaluated at 1, 4, 7, 14, or 21 days after intervention. […] A two way analysis of variance indicated a statistically significant difference (p<.05) in the artery lumen areas over three weeks between the cytochalasin B treated and diluent control groups.

[5] = system: swine coronary arteries; assay: Dose-response study of balloon traumatized coronary arteries (morphometry); format: in vivo
[6] = system: balloon traumatized rabbit carotid artery; format: in vivo
[7] = system: Vascular smooth muscle cells (BO54); assay: Scratch assay of smooth muscle cell migration; format: cell-based, baboon; design: key: - = no migration; +1 = minimal; +2 = mild; +3 = moderate; +4 = marked (maximum density; limit of cell contact inhibition) migration; settings: for Migration Grade in an Undisturbed Region of the Well / Migration Grade in the Cleared Area of the Well: Day 1/3/6/8/10 = r5/r7/r9/r11/r13; for morphological Toxicity Grade: Day 1/3/6/8/10 = r6/r8/r10/r12/r14, listed as CY[…]
Experimental: Scratch assays to determine the extent of smooth muscle cell migration inhibition by cytochalasin B were performed in accordance with the following protocol: • Vascular smooth muscle cells (BO54) were derived from explants of baboon aortic smooth muscle, as described in Example 10. The cells were grown in flat bottom, six well tissue culture plates, which hold about 5 ml of medium. The vascular smooth muscle cells were plated at 200,000 cells/well and placed at 37°C in a humidified 5% CO2 incubator for 18 hours. The wells were then scratched with a sterile portion of a single edge razor blade that was held by clamp or pliers and was brought aseptically into contact with the bottom of the well at a 90° angle. The cells from a small area along the scratch were removed by a sterile cotton tipped applicator while the blade was in contact with the bottom of the well. After incubation, the presence of cells in the "scratched" area is indicative of cell migration across the scratch line.
Briefly, a stock solution of cytochalasin B (Sigma Chemical Co.) in dimethyl sulfoxide (DMSO) at 1 mg/ml was prepared. Test dilutions of cytochalasin B or control medium were added. Each experiment included two sets of plates: A set: Test agent exposure for 1, 3, 6, 8 and 10 days only; and B set: Test agent exposure for 1, 3, 6, 8 and 10 days, followed by a seven day recovery time with control medium. Both sets of plates were fixed (10% formalin in PBS) and stained (0.02% crystal violet) at the end of the timed exposures. Test concentrations for cytochalasin B were 1, 0.1 and 0.01 µg/ml, and a negative medium control was included. Fresh medium and drug were supplied 3 times per week.
In this Table, "M" indicates Migration Grade, wherein - = no migration; +1 = minimal; +2 = mild; +3 = moderate; and +4 = marked (maximum density; limit of cell contact inhibition) migration of vascular smooth muscle cells into the cleared area adjacent to the scratch. In this Table, "T" denotes a morphological Toxicity Grade, wherein - = no toxicity; +1 = minimal; +2 = mild; +3 = moderate; and +4 = marked toxicity. The migration results are expressed as "Grade in the Cleared Area of the Well / Grade in an Undisturbed Region of the Well." The toxicity values represent a grade for all cells in each well.

[8] = Group 7a: 10% wt/wt, three weeks
[9] = 7-day Recovery Post Exposure, 1.0 µg/mL

With `C=C1[C@@H](C)[C@H]2[C@H](Cc3ccccc3)NC(=O)[C@]23OC(=O)/C=C/[C@H](O)CCC[C@@H](C)C/C=C/[C@H]3[C@@H]1O` [cytochalasin B] the “minimum effective dose (MED), protein synthesis assay” value ([1]; 5 minute exposure) was 10 µg/mL, the “minimum effective dose (MED), protein synthesis assay” value ([1]; 24 hour exposure) was 1.0 µg/mL and the “minimum effective dose (MED), DNA assay” value ([2]; 5 minute exposure) was 10 µg/mL. For the same compound, the “therapeutic range (area under the curve of ^3H-leucine assay greater than ^3H-thymidine assay)” value ([2]; 24 hour assays, 5% FBS) was “available therapeutic range”, the “minimum effective dose (MED), DNA synthesis assay” value ([2]; 24 hour exposure) was 0.1 µg/mL and the “dose without any indication of adverse effects or toxicity” value [3] was “up to 648 µg/kg/day”. For the same compound, the “percent change in treated vs. normal luminal area” value ([4]; 0.1 µg/ml, 1 atm for 3 minutes, 3 weeks later) was ~140%, the “artery lumen area over three weeks” value ([4]; 0.1 µg/ml, 1, 4, 7, 14, or 21 days after intervention) was “sustained dilation which changed very little between days 7 and 21” and the “luminal area compared to other test agents or controls” value ([4]; 0.1 µg/ml, 4 day and 3 week post-treatment) was “larger luminal area”. For the same compound, the toxicity ([4]; at 10 µg/ml) was “no evidence of toxicity”, the “threshold level of the therapeutic effect” value ([4]; no effect below this dose) was 0.1 µg/mL and the “lumen area in the test region compared to the normal control segment of the same artery” value ([4]; pig, in vivo) was “approximately two times as large”. The “Mean % Lumen Area” value ([5]; 0.1 µg/mL, 4 Days Post Surgery) was 97.0%, the “Mean % Lumen Area” value ([5]; 1.5 µg/mL, 4 Days Post Surgery) was 101.7% and the “Mean % Lumen Area” value ([5]; 1.5 µg/mL, 21 Days Post Surgery) was 100.9%. For the same compound, the “Mean % Lumen Area” value ([5]; 10µg/mL, 4 Days Post Surgery) was 103.9%, the “Mean % Lumen Area” value ([5]; 10 µg/mL, 21 Days Post Surgery) was 110.9% and the “myocardial or arterial lesions (histology)” value ([5]; 0.1, 1.5 or 10.0 µg/ml) was “did not result in myocardial or arterial lesions”. The “Mean % Lumen Area” value ([5]; 0.1 µ/mL, 21 Days Post Surgery) was 98.0%, the intimal proliferation ([6]; Group 1: 20 mg in 1 g bovine collagen gel, bovine collagen mesh wrap, 1 week) was “no intimal or adventital proliferation” and the intimal proliferation ([6]; Group 1: 20 mg in 1 g bovine collagen gel, bovine collagen mesh wrap, 2 weeks) was “minimal intimal and adventital proliferation”. The intimal proliferation ([6]; Group 1: 20 mg in 1 g bovine collagen gel, bovine collagen mesh wrap, three weeks) was “no intimal proliferation”, the intimal proliferation ([6]; Group 2: 30% wt/wt in silicone wrap, 3 weeks) was “moderate, irregular intimal proliferation” and the intimal proliferation ([6]; Group 2: 30% wt/wt in silicone wrap, one week) was “no significant intimal or adventitial proliferation”. The intimal proliferation ([6]; Group 2: 30% wt/wt in silicone wrap, two weeks) was “complete inhibition of intimal proliferation”, the intimal proliferation ([6]; Group 3: 8 mg in 100 mg pluronic gel, bovine collagen mesh wrap, one week) was “mild intimal proliferation” and the intimal proliferation ([6]; Group 3: 8 mg in 100 mg pluronic gel, bovine collagen mesh wrap, three weeks) was “moderate amount of intimal hyperplasia”. The intimal proliferation ([6]; Group 3: 8 mg in 100 mg pluronic gel, bovine collagen mesh wrap, two weeks) was “mild, irregular intimal proliferation”, the re-endothelization ([6]; Group 3: 8 mg in 100 mg pluronic gel, one week) was “approximately 30%” and the intimal proliferation ([6]; Group 4: 100 mg (10% wt/wt) in 1 g silicone wrap, one week) was “no intimal proliferation”. For the same compound, the intimal proliferation ([6]; Group 4: 100 mg (10% wt/wt) in 1 g silicone wrap, three weeks) was “minimal to no intimal proliferation”, the intimal proliferation ([6]; Group 4: 100 mg (10% wt/wt) in 1 g silicone wrap, two weeks) was “minimal intimal proliferation” and the re-endothelization ([6]; Group 4: 10% wt/wt silicone wrap, three weeks) was < 10%. The intimal proliferation ([6]; Group 7a: 10% wt/wt, one and two weeks) was “no intimal proliferation for 2 weeks”, the intimal proliferation [6, 8] was “mild irregular intimal proliferation” and the re-endothelized [6, 8] was 70%. The intimal proliferation ([6]; Group 8a: 10% wrap for 2 weeks, removed, evaluated 2 weeks later, animals 1254, 1255, 1256) was “none to mild; also recorded: mild to moderate intimal proliferation”, the intimal proliferation ([6]; Group 10: 10 mg in 1 g silicone wrap (1% wt/wt) for 2 weeks, removed, 2 weeks later, animal 1304) was “moderate initmal proliferation” and the re-endothelization ([6]; Group 10: 1% wrap for 2 weeks, removed, 2 weeks later, animal 1304) was 100%. For the same compound, the re-endothelized ([6]; Group 11: 1% wrap for 2 weeks, removed, four weeks later, animal 1308) was 100%, the intimal proliferation ([6]; Group 11: 1% wrap for 2 weeks, removed, four weeks later, animals 1307, 1308, 1309) was “moderate initmal proliferation; also recorded: moderate intimal proliferation; also recorded: marked intimal proliferation” and the “qualitative difference between test and control animals” value ([6]; Groups 10 and 11: 1% wt/wt silicone wrap for 2 weeks, removed, 2 or 4 weeks later) was “No significant difference”. For the same compound, the “Migration Grade in an Undisturbed Region of the Well” value [7, 9] was “+3”, the “Migration Grade in the Cleared Area of the Well” value [7, 9] was “+2” and the “morphological Toxicity Grade” value ([7]; Continuous Exposure, 0.1 µg/mL) was “+1”. The “Migration Grade in an Undisturbed Region of the Well” value ([7]; Continuous Exposure, 1.0 µg/mL) was “+2”, the “Migration Grade in the Cleared Area of the Well” value ([7]; Continuous Exposure, 1.0 µg/mL) was “-” and the “morphological Toxicity Grade” value ([7]; Continuous Exposure, 1.0 µg/mL) was “+3”.
